Consider 72 compounds from PubChem BioAssay AID179 (DTP/NCI, 2004).

In the test the test system is CEM cells HIV-1 protection, formazan growth assay. As to the kind of experiment: NCI AIDS Antiviral Assay. To be noted: for IC50: measured here: growth of uninfected CEM cells. Put shortly:
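Human CEM cells, uninfected and HIV-1-infected, exposed to five drug concentrations; growth measured by soluble formazan assay and scored as percent protection from infection, with protecting compounds retested.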

Several values for one entry are separate records, joined by “and”; a condition that tells them apart may be missing. Equal values may be shown once. Activity calls are given as the source filed them.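 Rule for the calls: active = compounds giving half or more protection of infected cells from virus-caused growth loss, again on retest; inactive = the rest.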

In the case of `CC1(Cl)CCC2(CC1Br)C(C)(C)C(Br)=CC1OC12C` (configuration not stated), the EC50 was above 200 µM and the half-maximal inhibitory concentration (IC50) worked out at 33.9 µM.
Turning to `CCCCCCCCCCCC(=O)Oc1c(Cl)cc(Cl)c(OC(=O)C(=O)Oc2c(Cl)cc(Cl)c(OC(=O)CCCCCCCCCCC)c2Cl)c1Cl`, the result was inactive.
`COc1cc(C2c3cc4c(cc3OC(NNC(N)=O)C2C)OCO4)cc(OC)c1O` (configuration not stated): the EC50 was above 200 µM and the IC50 was determined as 0.525 µM.
The like results for `Nc1ccc(S(=O)(=O)Nc2cnc3ccccc3n2)cc1` were, in that order, above 316 µM and above 316 µM.
The like results for `c1ccc2nc(SSc3ccc4ccccc4n3)ccc2c1` were, in that order, above 200 µM and 24 µM.
The like results for `O=P(O)(Cc1ccccc1)OCC1(O)OCC(O)C(O)C1O` (configuration not stated) were, in that order, above 200 µM and above 200 µM.
Regarding `CN(C)[C@@H]1C(=O)C(C(N)=O)=C(O)[C@@]2(O)C(=O)C3=C(O)c4c(O)cccc4C[C@H]3C[C@@H]12`, the EC50 is above 200 µM and the IC50 turned out to be 3.55 µM.
For `CC(C)CCCC(C)[C@H]1CC[C@@H]2[C@H]3CC[C@H]4C[C@@H](CCC=C(c5cc(Cl)c(OCc6cccc([N+](=O)[O-])c6)c(C(=O)OCc6cccc([N+](=O)[O-])c6)c5)c5cc(Cl)c(OCc6cccc([N+](=O)[O-])c6)c(C(=O)OCc6cccc([N+](=O)[O-])c6)c5)CC[C@]4(C)[C@@H]3CC[C@]12C` (some centres not stated), the EC50 is above 100 µM and the IC50 was above 100 µM.
Regarding `CCOC(=O)C1(C(=O)OCC)C(C(C)(C)C)=C(C)c2ccccc21`, the EC50 was above 50.1 µM and the IC50 turned out to be 20.4 µM.
The corresponding values for `CCSc1ccc(/C=C(\C#N)c2ccc(OCCN(CC)CC)cc2)cc1` are above 100 µM and 1.2 µM.
For the compound `Cc1nc(Cl)c(Cl)c(Cl)n1`, the outcome was inactive.
Same read-out and setting: for `COC(OC)(c1ccccc1)C(I)I` the value was “inactive”.
Turning to `O=c1nc(/C=C/c2ccccc2Cl)cc2n1CCN2CCO`, the result was inactive.
In the case of `Cc1cc(C)c(C)c(-n2[nH]c(=O)n(C)c2=O)c1C`, the EC50 was above 200 µM and the 50% inhibitory concentration (IC50) was above 200 µM.
On to `O=P(O)(O)C1(P(=O)(O)O)CC1`, for which the EC50 is above 251 µM and the concentration for half-maximal inhibition (IC50) is above 251 µM.
As to `COc1ccccc1/C=C1\C(=O)N(C(=O)Cc2ccccc2)N=C1C`, the EC50 is above 15.5 µM and the IC50 was above 15.5 µM.
On to `COc1ccc(-n2cc3c(c2)C(=O)OC3=O)cc1OC`, for which the result was inactive.
As to `OC12CCCCCC1(N1CCOCC1)c1ccccc12` (configuration not stated), the EC50 is above 200 µM and the IC50 was above 200 µM.
As to `CC(C)c1ccc(C2C3=C(N=C4SCC(=O)N42)C(=O)c2ccccc23)cc1` (configuration not stated), the EC50 was above 13.8 µM and the concentration for half-maximal inhibition (IC50) is above 13.8 µM.
Consider `COc1ccc(N=Cc2c(O)ccc3c2oc2cc(Cl)c(O)c(Cl)c23)cc1`, for which the EC50 was above 200 µM and the IC50 amounted to 2.95 µM.
On to `CCN(CC)c1ccc2cc(-c3nc4ccccc4c(=O)[nH]3)c(=N)oc2c1`, for which the EC50 was above 100 µM and the 50% inhibitory concentration (IC50) was above 100 µM.
Regarding `Nc1ccccc1C1=Nc2cncnc2NC1`, the EC50 was above 417 µM and the concentration for half-maximal inhibition (IC50) came to 295 µM.
Turning to `N#Cc1nc(-c2ccccc2O)oc1N`, the EC50 was above 200 µM and the IC50 is above 100 µM.
The corresponding values for `CC(=O)OC1(CSc2ccccc2)CCCCC1` are above 200 µM and 49 µM.
As for `O=c1cc(S(=O)(=O)Cc2ccccc2)[nH]c(=O)[nH]1`, the EC50 was above 135 µM and the half-inhibitory concentration (IC50) was above 135 µM.
In the case of `CCOC(=O)/C(O)=C/c1nc2ccccc2nc1C`, the EC50 was above 46.8 µM and the half-inhibitory concentration (IC50) is above 46.8 µM.
With `c1ccc(Cc2nc(Cc3n[nH]c(Cc4ccccc4)n3)n[nH]2)cc1`, the EC50 is above 200 µM and the half-maximal inhibitory concentration (IC50) was above 200 µM.
Regarding `O=c1[nH]c(CO)nc(O)c1Cl`, the EC50 was above 200 µM and the IC50 was above 200 µM.
In the case of `O=c1c2cc(Br)ccc2nc(-c2ccccc2Cl)n1NCC1(O)OCC(O)C(O)C1O` (configuration not stated), the outcome was inactive.
As to `O=C(O)c1sccc1Cc1ccsc1`, the EC50 was above 200 µM and the IC50 was above 200 µM.
As for `CC(C)CCCC(C)[C@H]1CCC2C3CCC4C[C@@H](CCC=C(c5cc(Cl)c(OCc6ccc([N+](=O)[O-])cc6)c(C(=O)O)c5)c5cc(Cl)c(OCc6ccc([N+](=O)[O-])cc6)c(C(=O)O)c5)CC[C@]4(C)C3CC[C@@]21C` (some centres not stated), the EC50 was 115 µM and the IC50 was above 200 µM.
The like results for `O=Nc1ccccc1` were, in that order, above 200 µM and above 200 µM.
Regarding `CC1=C2C(O)C(C(C)CO)C(O)CC2(C)C(O)CC1` (configuration not stated), the outcome was inactive.
As for `CC[C@]12CN3CCc4c([nH]c5ccccc45)[C@@](C(=O)OC)(c4cc5c(cc4OC)N(C)[C@H]4[C@@](O)(C(=O)OC)[C@H](OC(C)=O)[C@]6(CC)C=CCN7CC[C@]54[C@@H]76)CC(C3)[C@H]1O2` (some centres not stated), the EC50 is above 2 µM; the half-inhibitory concentration (IC50) is 0.141 µM and 0.0447 µM.
As for `C#CC(O)CS(=O)(=O)c1ccccc1` (configuration not stated), the EC50 was above 100 µM and the IC50 is above 100 µM.
As to `CCOC(=O)C1=c2[nH]c3cccc4cccc(c43)n2C(=O)CC1`, the EC50 is above 200 µM and the concentration for half-maximal inhibition (IC50) amounted to 12.3 µM.
The corresponding values for `CCOC(=O)/C(=C\c1ccc(Cl)cc1)[Se]c1ccccc1` are above 97.7 µM and above 97.7 µM.
The corresponding values for `Cc1ccc([N+](=O)[O-])cc1N=NC(=O)NNc1cc([N+](=O)[O-])ccc1C` are above 200 µM and 32.4 µM.
As to `Clc1ccccc1C1SCc2nc3ncccc3n21` (configuration not stated), the EC50 was above 91.2 µM and the concentration for half-maximal inhibition (IC50) amounted to 67.6 µM.
For `CCOC(=O)c1nc2ccc(Cl)cc2c2c1Cc1ccccc1-2`, the EC50 is above 20 µM and the IC50 was above 20 µM.
For `COC(=O)C=C(c1cc(Cl)c(OC)c(C(=O)OC)c1)c1cc(Cl)c(OC)c(C(=O)OC)c1`, the EC50 was above 200 µM and the IC50 turned out to be 17.8 µM.
The corresponding values for `O=C1OC[C@H]2[C@@H]1[C@H]1O[C@@H]2C2=C(CCC2)C1=O` are above 200 µM and above 200 µM.
On to `CC(C)C1CO[C@]2(C)CCC(=O)N12` (some centres not stated), for which the EC50 is above 1350 µM and the half-inhibitory concentration (IC50) was above 1350 µM.
`Cc1cc(C)c(C(=O)c2ccccc2C(=O)O)c(C)c1` came in with a concentration giving a half-maximal response (EC50) above 200 µM and a half-inhibitory concentration (IC50) above 200 µM.
In the case of `CCOC(=O)C(NO)C(Sc1ccccc1)c1ccc(OC)cc1` (configuration not stated), the outcome was inactive.
Consider `CC(=O)OC1=NN=C2COC(c3ccccc3OC(C)=O)=NN2C1`, for which the EC50 is above 200 µM and the IC50 came out at 115 µM.
The like results for `CCCCCC1c2c(cc(C)[nH]c2=O)OC(O)C1CCCC` (configuration not stated) were, in that order, above 126 µM and above 126 µM.
Take `O=C(CC1(O)C(=O)Nc2ccc([N+](=O)[O-])cc21)c1ccncc1` (configuration not stated): the EC50 was above 20.9 µM and the half-inhibitory concentration (IC50) was above 20.9 µM.
Regarding `CN(C)CCNC(=O)c1cccc2c(Nc3ccc(S(N)(=O)=O)cc3)c3ccccc3nc12`, the outcome was inactive.
For the compound `C=C1C2CC[C@@]3(CC[C@@H]4[C@@]5(C)CCC[C@@]4(CN4CCO[C@H]45)[C@@H]3C2)[C@@H]1O`, the outcome was inactive.
For the compound `Cc1ccc(N/N=c2\c3nc4ccccc4nc2n(-c2ccccc2C)c(=S)n3-c2ccccn2)cc1`, the EC50 is above 17.8 µM.
As for `CN1CCc2c(sc(N)c2C#N)C1`, the outcome was inactive.
As for `CCOC(=O)c1ccc(CS(=O)c2ccccc2)c([N+](=O)[O-])c1` (configuration not stated), the EC50 is above 204 µM and the IC50 was found to be 3.47 µM.
The corresponding values for `COc1ccc(-c2onc3ccc(Cl)cc23)cc1` are above 20 µM and above 20 µM.
On to `CC(=O)NC1=C(C)C(=O)c2c(nc3n2CCC3OC(=O)CCl)C1=O` (configuration not stated), for which the EC50 is above 200 µM and the IC50 worked out at 1.48 µM.
On to `CCN(CC)C(C)C(=O)Nc1cccc(Cl)c1C` (configuration not stated), for which the EC50 is above 50.1 µM and the IC50 was above 50.1 µM.
As to `CC(Nc1n[nH]c(=O)c2c1nnn2Cc1ccccc1)c1ccccc1` (configuration not stated), the EC50 was 55 µM and 126 µM; the half-inhibitory concentration (IC50) was 97.7 µM and 447 µM.
As to `CCOC(=O)/C(=C\c1ccc(Br)cc1)P(=O)(OCC)OCC`, the EC50 was above 331 µM and the IC50 came to 6.76 µM.
For the compound `CN(C)Cc1cc(N=Nc2ccc(Cl)cc2)cc(CN(C)C)c1O`, the EC50 was above 20 µM and the IC50 is 8.71 µM.
The like results for `CCOC(=O)C(=O)Nc1ccccc1OCC` were, in that order, above 209 µM and above 209 µM.
As for `O=C1OC(=O)C2C3CC(C12)C1C3N1S(=O)(=O)c1ccccc1` (configuration not stated), the EC50 is above 132 µM and the IC50 is above 132 µM.
On to `CCOC(=O)C(NC(C)=O)[CH](c1ccccc1)[Sn]([c]1ccccc1)([c]1ccccc1)[c]1ccccc1` (configuration not stated), for which the EC50 is above 31.6 µM and the IC50 was determined as 7.08 µM.
Take `COC1CC(C)C(OC)c2cc(O)cc(c2O)NC(=O)/C(C)=C/C=C\C(C)C(OC(N)=O)/C(C)=C\C(C)C1OC` (configuration not stated): the EC50 is above 170 µM and the IC50 came out at 0.676 µM.
Regarding `CCSCCCCCCCCCCC(=O)OCC1OC(n2cc(C)c(=O)[nH]c2=O)CC1N=[N+]=[N-]` (configuration not stated), the EC50 is 0.0479 µM and the IC50 came to 49 µM.
The like results for `Nc1ccn(C2OC(COP(=O)(O)O)C(O)C2O)c(=O)n1` (configuration not stated) (tested in a mixture with another compound) were, in that order, above 200 µM and 40.7 µM.
On to `COc1cc(-c2cc(O)c(-c3ccc4ccccc4n3)c(=O)[nH]2)cc(OC)c1OC`, for which the EC50 was above 0.933 µM and the IC50 was above 0.933 µM.
For `CNc1ccc(S(=O)Nc2ccccc2)cc1` (configuration not stated), the EC50 was above 200 µM and the IC50 worked out at 93.3 µM.
The corresponding values for `COc1cc(-c2oc3c(OC)cc(OC)c(O)c3c(=O)c2OC)cc(OC)c1OC` are above 200 µM and above 200 µM.
The corresponding values for `Cc1cn2c(nc1=O)OC1C(O)C(CCl)OC12` (configuration not stated) are above 200 µM and above 200 µM.
The corresponding values for `Cc1ccccc1[P+](Cc1ccccc1)(c1ccccc1)c1ccccc1` are above 200 µM and 1.26 µM.
Regarding `CC12C=NNC1(C)C(=O)C1(C)CN=NC1(C)C2=O` (configuration not stated), the EC50 is above 200 µM and the 50% inhibitory concentration (IC50) is above 200 µM.
For `O=C(/C=C/c1ccncc1)c1ccccc1`, the EC50 was above 324 µM and the IC50 turned out to be 6.03 µM.
